Data on three molecules can be found in PMC5315611 (Clinical cancer research : an official journal of the …, 2016).

Like-named read-outs stand apart in the source and are kept apart here.

Series [1] relates to relapsed or refractory acute leukemia. As to conditions: cited from earlier work.
The next series in a line: clinical. To be noted: human, in vivo, po; for half-life: t1/2.
For series [2] the following is noted: human, in vivo, po.
The nature of series [3]: Veliparib plasma pharmacokinetics. As to conditions: after multiple doses, MTD (80 mg) vs highest administered dose (100 mg).
In series [4] the test system is AML cell lines and clinical samples. As to conditions: in vitro; cited from earlier work.

`N.N.O=C([O-])C1(C(=O)[O-])CCC1.[Pt+2]` [carboplatin]: the “carboplatin dose at the MTD of the combination” value (CI IV days 3-7, with veliparib 80 mg twice daily + topotecan 1.2 mg/m^2/d) was 150 mg/m^2/d. Besides, in series [1] (with topotecan simultaneously for 5 days), the “maximum tolerated dose (MTD) of carboplatin” value is 150 mg/m^2/day.

With `CC[C@@]1(O)C(=O)OCc2c1cc1n(c2=O)Cc2cc3c(CN(C)C)c(O)ccc3nc2-1` [topotecan], the “topotecan dose at the MTD of the combination” value (CI IV days 3-7, with veliparib 80 mg twice daily + carboplatin 150 mg/m^2/d) stood at 1.2 mg/m^2/d. Moreover, the “toxicity associated with topotecan 1.3 mg/m^2” value (in vivo) is “dose-limiting GI mucositis”. Further, the “maximum tolerated dose (MTD) of topotecan” value in series [1] (with carboplatin simultaneously for 5 days) is reported as 1.6 mg/m^2/day.

In general, half-life refers to how long it takes for the measured level to halve. As for `C[C@]1(c2nc3c(C(N)=O)cccc3[nH]2)CCCN1` [veliparib], the Cmax in “clinical” (10 mg) was 74.6 ± 33 ng/mL; in “clinical” (20 mg) it was 102 ± 31.6 ng/mL; in the series “clinical” (40 mg) it was 231 ± 128 ng/mL; in the series “clinical” (90 mg), 509 ± 101 ng/mL; in the series “clinical” (100 mg), 1120 ± 718 ng/mL; in series [2] (80 mg), 608.7 ± 260.3 (35) ng/mL. In addition, the half-life in “clinical” (10 mg) was 5.5 ± 3.5 h; in the series “clinical” (20 mg), 4.7 ± 1.1 h; in the series “clinical” (40 mg), 4.1 ± 0.9 h; in “clinical” (90 mg), 3.2 ± 1.2 h; in the series “clinical” (100 mg), 5.9 ± 2.4 h. Also, the Tmax in “clinical” (10 mg) is 2 h; in the series “clinical” (20 mg), 2 h; in the series “clinical” (40 mg), 1 h; in “clinical” (90 mg), 1 h; in the series “clinical” (100 mg) it was 1 h; in series [2] (80 mg) it was 1.1 (0.3 - 6.0; 35) h. Moreover, the Cl/F is listed as 27.7 ± 9.3 (23) L/h in series [2] (10 mg); 31.7 ± 7.7 (12) L/h in series [2] (20 mg); 36.4 ± 15.4 (5) L/h in series [2] (40 mg); 26.2 ± 7.1 (30) L/h in series [2] (80 mg); 35.9 ± 10.2 (3) L/h in series [2] (90 mg); 44.9 ± 50.6 (4) L/h in series [2] (100 mg). The t1/2 in series [2] (80 mg) is 4.7 ± 1.4 (30) h. In addition, the “increase in AUC” value in series [3] is recorded as 2.0 fold. Also, the “maximum tolerated dose (MTD) of veliparib” value (with CI IV topotecan 1.2 mg/m^2/d + carboplatin 150 mg/m^2/day on days 3-7) was 80 mg twice daily. Further, the “effect on the antiproliferative and proapoptotic effects of topotecan” value in series [4] is given as “enhances”. In addition, the “synergy with cytarabine or etoposide” value in series [4] is given as “no synergy”.
